Experimental data reported in ChEMBL document CHEMBL3045272, “Synthesis and fungicidal activities of novel bis(trifluoromethyl)phenyl-based strobilurins” (J Agric Food Chem, 2008).
Values after ≈ are worked out from the molar mass of the structure shown.

Assays:
Podosphaera fuliginea [1] = experiment: Fungicidal activity against Podosphaera fuliginea infected cucumber plants exposed to compound treatment 1 day post infection assessed as disease curative activity measured after 1 or 2 weeks; type: functional, organism-based
Podosphaera fuliginea [2] = experiment: Fungicidal activity against Podosphaera fuliginea infected cucumber plants exposed to compound treatment 1 day post infection assessed as disease curative activity at 0.78 mg/L measured after 1 or 2 weeks; type: functional
Podosphaera fuliginea [3] = experiment: Fungicidal activity against Podosphaera fuliginea infected cucumber plants exposed to compound treatment 1 day post infection assessed as disease curative activity at 1.56 mg/L measured after 1 or 2 weeks; type: functional
Blumeria graminis [4] = experiment: Fungicidal activity against Blumeria graminis infected compound pre-treated wheat plants assessed as disease preventive activity at 0.78 mg/L measured after 1 or 2 weeks; type: functional
Blumeria graminis [5] = experiment: Fungicidal activity against Blumeria graminis infected compound pre-treated wheat plants assessed as disease preventive activity at 1.56 mg/L measured after 1 or 2 weeks; type: functional
Blumeria graminis [6] = experiment: Fungicidal activity against Blumeria graminis infected compound pre-treated wheat plants assessed as disease preventive activity at 3.12 mg/L measured after 1 or 2 weeks; type: functional
Blumeria graminis [7] = experiment: Fungicidal activity against Blumeria graminis infected compound pre-treated wheat plants assessed as disease preventive activity at 6.25 mg/L measured after 1 or 2 weeks; type: functional
Blumeria graminis [8] = experiment: Fungicidal activity against Blumeria graminis infected compound pre-treated wheat plants assessed as disease preventive activity at 1.5 ppm measured after 1 or 2 weeks; type: functional
Blumeria graminis [9] = experiment: Fungicidal activity against Blumeria graminis infected compound pre-treated wheat plants assessed as disease preventive activity at 3.1 ppm measured after 1 or 2 weeks; type: functional
Blumeria graminis [10] = experiment: Fungicidal activity against Blumeria graminis infected compound pre-treated wheat plants assessed as disease preventive activity at 6.2 ppm measured after 1 or 2 weeks; type: functional
Podosphaera fuliginea [11] = experiment: Fungicidal activity against Podosphaera fuliginea infected cucumber plants exposed to compound treatment 1 day post infection assessed as disease curative activity at 3.12 mg/L measured after 1 or 2 weeks; type: functional
Podosphaera fuliginea [12] = experiment: Fungicidal activity against Podosphaera fuliginea infected cucumber plants exposed to compound treatment 1 day post infection assessed as disease curative activity at 6.25 mg/L measured after 1 or 2 weeks; type: functional
Blumeria graminis [13] = experiment: Fungicidal activity against Blumeria graminis infected wheat plants exposed to compound treatment 1 day post infection assessed as disease curative activity measured after 1 or 2 weeks; type: functional, organism-based
Blumeria graminis [14] = experiment: Fungicidal activity against Blumeria graminis infected wheat plants exposed to compound treatment 1 day post infection assessed as disease curative activity at 1.56 mg/L measured after 1 or 2 weeks; type: functional
Blumeria graminis [15] = experiment: Fungicidal activity against Blumeria graminis infected wheat plants exposed to compound treatment 1 day post infection assessed as disease curative activity at 0.78 mg/L measured after 1 or 2 weeks; type: functional
Blumeria graminis [16] = experiment: Fungicidal activity against Blumeria graminis infected wheat plants exposed to compound treatment 1 day post infection assessed as disease curative activity at 3.12 mg/L measured after 1 or 2 weeks; type: functional
Blumeria graminis [17] = experiment: Fungicidal activity against Blumeria graminis infected wheat plants exposed to compound treatment 1 day post infection assessed as disease curative activity at 6.25 mg/L measured after 1 or 2 weeks; type: functional
Podosphaera fuliginea [18] = experiment: Fungicidal activity against Podosphaera fuliginea infected compound pre-treated cucumber plants assessed as disease preventive activity at 0.78 mg/L measured after 1 or 2 weeks; type: functional
Podosphaera fuliginea [19] = experiment: Fungicidal activity against Podosphaera fuliginea infected compound pre-treated cucumber plants assessed as disease preventive activity at measured after 1 or 2 weeks; type: functional, organism-based
Podosphaera fuliginea [20] = experiment: Fungicidal activity against Podosphaera fuliginea infected compound pre-treated cucumber plants assessed as disease preventive activity at 1.56 mg/L measured after 1 or 2 weeks; type: functional
Podosphaera fuliginea [21] = experiment: Fungicidal activity against Podosphaera fuliginea infected compound pre-treated cucumber plants assessed as disease preventive activity at 3.12 mg/L measured after 1 or 2 weeks; type: functional
Podosphaera fuliginea [22] = experiment: Fungicidal activity against Podosphaera fuliginea infected compound pre-treated cucumber plants assessed as disease preventive activity at 6.25 mg/L measured after 1 or 2 weeks; type: functional
Blumeria graminis [23] = experiment: Fungicidal activity against Blumeria graminis infected compound pre-treated wheat plants assessed as disease preventive activity measured after 1 or 2 weeks; type: functional, organism-based
Blumeria graminis [24] = experiment: Fungicidal activity against Blumeria graminis infected compound pre-treated wheat plants assessed as disease preventive activity at 500 ppm measured after 1 or 2 weeks; type: functional
Blumeria graminis [25] = experiment: Fungicidal activity against Blumeria graminis infected compound pre-treated wheat plants assessed as disease preventive activity at 100 ppm measured after 1 or 2 weeks; type: functional

For `CO/C=C(/C(=O)OC)c1ccccc1Oc1cc(Oc2ccccc2C#N)ncn1` [AZOXYSTROBIN], the EC50 (Podosphaera fuliginea [1]) was 0.8 mg/L (≈ 1.98 µM), the EC90 (Podosphaera fuliginea [1]) was 2.1 mg/L (≈ 5.21 µM) and the Activity (Podosphaera fuliginea [2]) was 55%. The Activity (Podosphaera fuliginea [3]) was 80%, the Activity (Blumeria graminis [4]) was 20% and the Activity (Blumeria graminis [5]) was 50%. For the same compound, the Activity (Blumeria graminis [6]) was 65%, the Activity (Blumeria graminis [7]) was 90% and the Activity (Blumeria graminis [8]) was 62%. For the same compound, the Activity (Blumeria graminis [9]) was 80%, the Activity (Blumeria graminis [10]) was 85% and the Activity (Podosphaera fuliginea [11]) was 90%. For the same compound, the Activity (Podosphaera fuliginea [12]) was 100%, the EC50 (Blumeria graminis [13]) was 1.7 mg/L (≈ 4.21 µM) and the EC90 (Blumeria graminis [13]) was 5.9 mg/L (≈ 14.6 µM). For the same compound, the Activity (Blumeria graminis [14]) was 52%, the Activity (Blumeria graminis [15]) was 15% and the Activity (Blumeria graminis [16]) was 78%. For the same compound, the Activity (Blumeria graminis [17]) was 89%, the Activity (Podosphaera fuliginea [18]) was 35% and the EC50 (Podosphaera fuliginea [19]) was 1.2 mg/L (≈ 2.97 µM). For the same compound, the EC90 (Podosphaera fuliginea [19]) was 4.5 mg/L (≈ 11.2 µM), the Activity (Podosphaera fuliginea [20]) was 60% and the Activity (Podosphaera fuliginea [21]) was 80%. It also gave an Activity (Podosphaera fuliginea [22]) of 95%, an EC50 (Blumeria graminis [23]) of 1.7 mg/L (≈ 4.21 µM) and an EC90 (Blumeria graminis [23]) of 7 mg/L (≈ 17.4 µM). The Activity (Blumeria graminis [24]) was 100% and the Activity (Blumeria graminis [25]) was 100%.
